Patent publication US20030143635A1, “Assay for detection of transferase enzyme activity in drug screening” (AstraZeneca AB, priority 2000, published 2003)

Key:
[1] = system: translocase and transferase enzymes; assay type: biochemical, Escherichia coli; details: 100 μM test compound; E. coli AMA1004 membranes; 37° C., 30 min; after subtracting 0% reaction readings
Protocol: (§1) (i) The wells of a microtitre plate were individually filled with a total volume of 25 μl of a reaction mixture comprising an aqueous buffer solution of 50 mM HEPES-ammonia (N-[2-Hydroxyethyl]piperazine-N′-[2-ethanesulfonic acid]) (pH 7.5), and 10 mM magnesium chloride 15 μM UDP-MurNAc-L-alanine-γ-D-glutamic acid-m-diaminopimelic acid-D-alanine-D-alanine, 2.5 μM tritiated UDP-N-acetyl glucosamine (0.2 μCi per well), 6 μg of Escherichia coli AMA1004 cell membranes prepared as described below and a solution of test compound (e.g. Tunicamycin, Vancomycin) of varying concentration in 4% dimethylsulphoxide.
(§2) Four wells of the microtitre plate were used as controls: two wells contained no UDP-N-acetylmuramylpentapeptide (0% reaction controls) and a further two wells contained no test compound (100% reaction controls).
(§3) The microtitre plate was incubated at 37° C. for 30 min and thereafter 5 μl of ethylenediaminetetraacetic acid (EDTA) was added to give a final EDTA concentration of 15 mM.
(§4) (ii) After addition of the EDTA, 170 μl of an aqueous suspension of wheatgerm agglutinin-coated scintillation proximity assay beads comprising 500 μg beads in a solution of HEPES-ammonia, pH 7.5, was added to each well such that the final concentration of HEPES-ammonia was 50 mM.
(§5) The plate was left for 3 hours/overnight at room temperature before being counted in the “Microbeta Trilux” counter.

transferase enzyme = target: T1, transferase enzyme (Escherichia coli, UniProt P17443); assay: Scintillation proximity assay of the transferase alone, with membranes of E. coli AMA1004 ΔponB::SpcR and pre-formed Lipid I (Example 4); assay type: biochemical; details: Tunicamycin 10 μg/ml present, 37° C., 5 min, after subtracting 0% reaction readings
T1 sequence (P17443 1-355): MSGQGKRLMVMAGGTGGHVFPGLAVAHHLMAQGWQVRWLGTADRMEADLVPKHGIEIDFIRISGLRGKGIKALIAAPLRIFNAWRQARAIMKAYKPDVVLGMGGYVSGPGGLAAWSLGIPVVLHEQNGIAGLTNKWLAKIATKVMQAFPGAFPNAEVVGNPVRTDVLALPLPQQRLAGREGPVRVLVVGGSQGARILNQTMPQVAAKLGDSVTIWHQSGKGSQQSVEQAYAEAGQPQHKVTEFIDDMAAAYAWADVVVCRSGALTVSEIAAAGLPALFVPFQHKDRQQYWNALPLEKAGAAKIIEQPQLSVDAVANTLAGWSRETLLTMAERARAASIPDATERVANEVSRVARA
Protocol: Microbiol., (1985), 131, 2839-2845. The plate was incubated for 20 min at 37° C.
(ii) Tunicamycin was then added to a final concentration of 10 μg/ml, followed by a test compound (e.g. Vancomycin or Nisin) of varying concentration in dimethyl sulphoxide. Nisin and Vancomycin are known antagonists of the transferase enzyme.
(iii) Then to the reaction well, in a 5 μl volume, the substrate for the transferase was added: 2.5 μM tritiated UDP-N-acetyl glucosamine (0.5 μCi per well). The microtitre plate was incubated for 5 min at 37° C.
(iv) The reaction was terminated by diluting out the radiolabel i.e. by addition of 25 μl of 200 μM unlabelled UDP-GlcNAc.

[2] = target: T2, translocase and transferase enzymes (Escherichia coli, UniProt P0A6W3); assay type: biochemical; details: 6 μg/ml test compound; E. coli AMA1004 membranes; 37° C., 30 min; after subtracting 0% reaction readings
T2 sequence (P0A6W3 1-360): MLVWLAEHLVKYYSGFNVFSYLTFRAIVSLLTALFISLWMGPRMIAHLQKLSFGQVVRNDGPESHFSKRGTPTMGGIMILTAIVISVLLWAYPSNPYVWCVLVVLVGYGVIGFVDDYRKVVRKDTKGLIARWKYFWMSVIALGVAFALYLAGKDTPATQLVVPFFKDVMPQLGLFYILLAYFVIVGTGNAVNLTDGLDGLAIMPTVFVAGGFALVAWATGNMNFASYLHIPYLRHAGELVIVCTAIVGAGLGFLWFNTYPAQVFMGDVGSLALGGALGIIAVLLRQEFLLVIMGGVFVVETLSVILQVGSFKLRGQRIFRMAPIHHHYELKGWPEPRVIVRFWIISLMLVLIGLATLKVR
Protocol: as §1, §2, §3, §4, §5

For CN[C@H](CC(C)C)C(=O)N[C@H]1C(=O)N[C@@H](CC(N)=O)C(=O)N[C@H]2C(=O)N[C@H]3C(=O)N[C@H](C(=O)N[C@H](C(=O)O)c4cc(O)cc(O)c4-c4cc3ccc4O)[C@H](O)c3ccc(c(Cl)c3)Oc3cc2cc(c3O[C@@H]2O[C@H](CO)[C@@H](O)[C@H](O)[C@H]2O[C@H]2C[C@](C)(N)[C@H](O)[C@H](C)O2)Oc2ccc(cc2Cl)[C@H]1O [Vancomycin], the “% Inhibition” value [1] was 82% and the remaining activity at 100 µM (transferase enzyme; 100 μM test compound) was about 50%.

For Nisin, the “% Enzyme Activity” value (transferase enzyme; 10 μg/ml test compound) was “˜30%”.

With Tunicamycin the “% Inhibition” value [2] was 104%.
